From US20240166652A1, “MODULATORS OF THE INTEGRATED STRESS PATHWAY” (Calico Life Sciences LLC, priority 2017, published 2024)

The molecules below were run on ATF4 luciferase reporter in HEK293T cells (assay: ATF4-Luc assay (ATF4 luciferase reporter, tunicamycin-treated HEK293T cells)). Conditions: HEK293T cells carrying the ATF4 luciferase reporter, 1 μg/mL tunicamycin, 7 hours.
Assay type: cell-based, human

Row | Compound | EC50 [nM]
1 | O=C(COc1ccc(Cl)c(F)c1)NC12CCC(NC(=O)COc3ccc(C(F)(F)F)nc3)(CC1)C(F)C2 (single isomer, unassigned) [Compound 373] | 50 to 250

Same assay, conditions: Homo sapiens, HEK-293T; HEK293T cells carrying the ATF4 luciferase reporter, 1 μg/mL tunicamycin, 7 hours

Row | Compound | EC50 [nM]
2 | O=C(COc1ccc(Cl)c(F)c1)NC12CCC(NC(=O)COc3ccc(Cl)c(F)c3)(C[C@H]1O)[C@@H](O)C2 (racemic) [Compound 557, rac-N,N′-[(2R,5S)-2,5-dihydroxybicyclo[2.2.2]octane-1,4-diyl]bis[2-(4-chloro-3-fluorophenoxy)acetamide]] | < 10
3 | O=C(COc1ccc(Cl)c(F)c1)NC12CCC(NCc3nc4cc(F)ccc4[nH]3)(CC1)C[C@@H]2O [Compound 647, 2-(4-chloro-3-fluorophenoxy)-N-[(2S)-4-{[(5-fluoro-1H-benzimidazol-2-yl)methyl]amino}-2-hydroxybicyclo[2.2.2]octan-1-yl]acetamide] | 50 to 250
4 | CC(C)c1cc(OCC(=O)NC23CCC(NC(=O)COc4ccc(Cl)c(F)c4)(CC2)[C@@H](O)C3)cc(C(C)C)c1 [Compound 478, 2-(4-chloro-3-fluorophenoxy)-N-[(2S)-4-{2-[3,5-di(propan-2-yl)phenoxy]acetamido}-2-hydroxybicyclo[2.2.2]octan-1-yl]acetamide] | > 2000
5 | Cc1ccc(OCC(=O)NC23CCC(NC(=O)COc4ccc(C)cc4)(CC2)[C@@H](O)C3)cc1 [Compound 442, N,N′-[(2S)-2-hydroxybicyclo[2.2.2]octane-1,4-diyl]bis[2-(4-methylphenoxy)acetamide]] | < 10
6 | O=C(COc1ccc(F)c(F)c1)NC12CCC(NC(=O)COc3ccc(F)cc3)(CC1)[C@@H](O)C2 [Compound 811, 2-(3,4-difluorophenoxy)-N-{(3S)-4-[2-(4-fluorophenoxy)acetamido]-3-hydroxybicyclo[2.2.2]octan-1-yl}acetamide] | < 10
7 | O=C(COc1ccc(Cl)c(F)c1)NC12CC(NCC(=O)c3ccc(Cl)cc3)(C1)C2 [Compound 289, 2-(4-chloro-3-fluorophenoxy)-N-(3-{[2-(4-chlorophenyl)-2-oxoethyl]amino}bicyclo[1.1.1]pentan-1-yl)acetamide] | 50 to 250
8 | O=C(COc1ccc(Cl)c(Cl)c1)NC12CC(NCCOc3ccc(Cl)cc3F)(C1)C2 [Compound 123, N-(3-{[2-(4-chloro-2-fluorophenoxy)ethyl]amino}bicyclo[1.1.1]pentan-1-yl)-2-(3,4-dichlorophenoxy)acetamide] | 10 to 50
9 | O=C(COc1ccc(Cl)c(F)c1)NC12CCC(NC(=O)Cc3ccc4c(c3)OCO4)(CC1)C(O)C2 (centres unmarked) [Compound 323, 2-(2H-1,3-benzodioxol-5-yl)-N-{4-[2-(4-chloro-3-fluorophenoxy)acetamido]-2-hydroxybicyclo[2.2.2]octan-1-yl}acetamide] | > 2000
10 | O=C(COc1ccc(F)c(Cl)c1)NC12CC(NC(=O)COc3ccc4c(c3)OC(F)(F)O4)(C1)C2 [Compound 591, 2-(3-chloro-4-fluorophenoxy)-N-(3-{2-[(2,2-difluoro-2H-1,3-benzodioxol-5-yl)oxy]acetamido}bicyclo[1.1.1]pentan-1-yl)acetamide] | < 10
11 | O=C(COc1ccc(Cl)c(F)c1)NC12CC(NS(=O)(=O)CCc3ccc(F)cc3)(C1)C2 [Compound 480, 2-(4-chloro-3-fluorophenoxy)-N-(3-{[2-(4-fluorophenyl)ethanesulfonyl]amino}bicyclo[1.1.1]pentan-1-yl)acetamide] | > 2000
12 | O=C(COc1ccc(Cl)c(F)c1)NC12CCC(NC(=O)COc3cccnc3)(CC1)[C@@H](O)C2 [Compound 495, 2-(4-chloro-3-fluorophenoxy)-N-[(3S)-3-hydroxy-4-{2-[(pyridin-3-yl)oxy]acetamido}bicyclo[2.2.2]octan-1-yl]acetamide] | 10 to 50
13 | O=C(COc1cnc(C(F)(F)F)nc1)NC12CCC(NC(=O)COc3ccc(Cl)c(F)c3)(CC1)[C@@H](O)C2 [Compound 627, 2-(4-chloro-3-fluorophenoxy)-N-[(2S)-2-hydroxy-4-(2-{[2-(trifluoromethyl)pyrimidin-5-yl]oxy}acetamido)bicyclo[2.2.2]octan-1-yl]acetamide] | < 10
14 | O=C(COc1ccc2c(c1)OCCO2)NC12CCC(NC(=O)COc3ccc(Cl)c(F)c3)(CC1)[C@@H](O)C2 [Compound 758, 2-(4-chloro-3-fluorophenoxy)-N-[(2S)-4-{2-[(2,3-dihydro-1,4-benzodioxin-6-yl)oxy]acetamido}-2-hydroxybicyclo[2.2.2]octan-1-yl]acetamide] | < 10
15 | Cc1cc(OCC(=O)NC23CCC(NC(=O)COc4ccc(Cl)c(F)c4)(CC2)C[C@@H]3O)c2ccccc2n1 [Compound 520, 2-(4-chloro-3-fluorophenoxy)-N-[(3S)-3-hydroxy-4-{2-[(2-methylquinolin-4-yl)oxy]acetamido}bicyclo[2.2.2]octan-1-yl]acetamide] | 10 to 50
16 | CS(=O)(=O)c1ccc(OCC(=O)NC23CCC(NC(=O)COc4ccc(F)c(F)c4)(CC2)[C@@H](O)C3)cc1F [Compound 768, 2-(3,4-difluorophenoxy)-N-[(2S)-4-{2-[3-fluoro-4-(methanesulfonyl)phenoxy]acetamido}-2-hydroxybicyclo[2.2.2]octan-1-yl]acetamide] | 50 to 250
17 | O=C(COc1ccc(F)c(F)c1)NC12CCC(NC(=O)COc3ccc(Cl)cc3)(CC1)[C@@H](O)C2 [Compound 813, 2-(4-chlorophenoxy)-N-{(2S)-4-[2-(3,4-difluorophenoxy)acetamido]-2-hydroxybicyclo[2.2.2]octan-1-yl}acetamide] | < 10

Row | Compound | EC50 [nM]
18 | O=C(COc1ccc(Cl)c(F)c1)NC12CCC(NC(=O)COc3ccc(F)c(C(F)(F)F)c3)(CC1)[C@@H](O)C2 [Compound 828, 2-(4-chloro-3-fluorophenoxy)-N-[(3S)-4-{2-[4-fluoro-3-(trifluoromethyl)phenoxy]acetamido}-3-hydroxybicyclo[2.2.2]octan-1-yl]acetamide] | < 10
19 | O=C(COc1ccc(Cl)c(F)c1)NC12CCC(NC(=O)COc3ccc(Cl)c(F)c3)(C1)C2 [Compound 177, N,N′-(bicyclo[2.1.1]hexane-1,4-diyl)bis[2-(4-chloro-3-fluorophenoxy)acetamide]] | < 10
20 | O=C(COc1ccc(Cl)c(F)c1)NC12CCC(NC(=O)COc3ccc(C4CC4)nc3)(CC1)C(O)C2 (centres unmarked) [Compound 311, 2-(4-chloro-3-fluorophenoxy)-N-(4-{2-[(6-cyclopropylpyridin-3-yl)oxy]acetamido}-3-hydroxybicyclo[2.2.2]octan-1-yl)acetamide] | < 10
21 | O=C(COc1ccc(Cl)c(F)c1)NC12CCC(NC(=O)Cc3cccc(C(F)(F)F)c3)(CC1)C(O)C2 (centres unmarked) [Compound 321, 2-(4-chloro-3-fluorophenoxy)-N-(3-hydroxy-4-{2-[3-(trifluoromethyl)phenyl]acetamido}bicyclo[2.2.2]octan-1-yl)acetamide] | 500 to 2000
22 | COc1cccc(OCC(=O)NC23CCC(NC(=O)COc4ccc(Cl)c(F)c4)(CC2)[C@@H](O)C3)n1 [Compound 792, 2-(4-chloro-3-fluorophenoxy)-N-[(2S)-2-hydroxy-4-{2-[(6-methoxypyridin-2-yl)oxy]acetamido}bicyclo[2.2.2]octan-1-yl]acetamide] | < 10
23 | O=C(COCc1ccc(C(=O)O)cc1)NC12CC(NC(=O)COc3ccc(Cl)c(F)c3)(C1)C2 [Compound 211] | > 2000
24 | COc1ncc(OCC(=O)NC23CCC(NC(=O)COc4ccc(Cl)c(F)c4)(CC2)[C@@H](O)C3)cn1 [Compound 637, 2-(4-chloro-3-fluorophenoxy)-N-[(2S)-2-hydroxy-4-{2-[(2-methoxypyrimidin-5-yl)oxy]acetamido}bicyclo[2.2.2]octan-1-yl]acetamide] | < 10
25 | COc1ccc(OCC(=O)NC23CCC(NC(=O)COc4ccc(Cl)c(F)c4)(CC2)[C@@H](O)C3)nc1 [Compound 667, 2-(4-chloro-3-fluorophenoxy)-N-[(2S)-2-hydroxy-4-{2-[(5-methoxypyridin-2-yl)oxy]acetamido}bicyclo[2.2.2]octan-1-yl]acetamide] | > 2000
26 | O=C(COc1cc(F)c2cn[nH]c2c1)NC12CCC(NC(=O)COc3ccc(OC(F)(F)F)c(F)c3)(CC1)[C@@H](O)C2 [Compound 724] | < 10
27 | O=C(CCc1ccc(Cl)cc1)NC12CC(NC(=O)COc3ccc(Cl)c(F)c3)(C1)C2 [Compound 102, N-{3-[2-(4-chloro-3-fluorophenoxy)acetamido]bicyclo[1.1.1]pentan-1-yl}-3-(4-chlorophenyl)propanamide] | 50 to 250
28 | O=C(COc1ccc(Cl)c(F)c1)NC12CCC(NC(=O)COc3ccc(Cl)c(F)c3)(CC1)[C@@H](O)[C@@H]2O (racemic) [Compound 745, rac-N,N′-[(2R,3R)-2,3-dihydroxybicyclo[2.2.2]octane-1,4-diyl]bis[2-(4-chloro-3-fluorophenoxy)acetamide]] | < 10
29 | O=C(COc1ccc(Cl)c(F)c1)NC12CC(NC(=O)Oc3ccc(Cl)cc3)(C1)C2 [Compound 434, 4-chlorophenyl {3-[2-(4-chloro-3-fluorophenoxy)acetamido]bicyclo[1.1.1]pentan-1-yl}carbamate] | 250 to 500
30 | O=C(COc1ccc(Cl)c(F)c1)NC12CCC(NC(=O)CNc3ccc(Cl)c(F)c3)(CC1)[C@@H](O)C2 [Compound 748, 2-(4-chloro-3-fluoroanilino)-N-{(2S)-4-[2-(4-chloro-3-fluorophenoxy)acetamido]-2-hydroxybicyclo[2.2.2]octan-1-yl}acetamide] | 10 to 50
31 | COC1CC2(NC(=O)COc3ccc(Cl)c(F)c3)CCC1(NC(=O)COc1ccc(Cl)c(F)c1)CC2 (centres unmarked) [Compound 299, N,N′-(2-methoxybicyclo[2.2.2]octane-1,4-diyl)bis[2-(4-chloro-3-fluorophenoxy)acetamide]] | 10 to 50
32 | O=C(COc1ccc(F)cc1)NC12CCC(NC(=O)COc3ccc(Cl)c(F)c3)(CC1)[C@@H](O)C2 [Compound 619, 2-(4-chloro-3-fluorophenoxy)-N-{(2S)-4-[2-(4-fluorophenoxy)acetamido]-2-hydroxybicyclo[2.2.2]octan-1-yl}acetamide] | < 10
